Measurements as given in patent US20150105252A1, “SUBSTITUTED PYRAZOLES AS HERBICIDES” (E I DU PONT DE NEMOURS AND COMPANY, priority 2013, published 2015).

Legend:
foxtail, giant = assay: Test C postemergence; type: in vivo, Setaria faberii
Method in brief: (§1)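 Postemergence values come from plants sprayed at the 1- to 4-leaf stage (2–18 cm) in peat moss–vermiculite medium; preemergence values from seeds treated in a loam–sand blend. Both evaluated visually against controls after 13–15 greenhouse days, scale 0–100.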

kochia = assay: Test C postemergence; type: in vivo, Kochia scoparia
Method in brief: as §1

morningglory = assay: Test C postemergence; type: in vivo, Ipomoea coccinea
Method in brief: as §1

nutsedge, yellow = assay: Test C postemergence; type: in vivo, Cyperus esculentus
Method in brief: as §1

ragweed = assay: Test C postemergence; type: in vivo, Ambrosia elation
Method in brief: as §1

soybean = assay: Test C postemergence; type: in vivo, Glycine max
Method in brief: as §1

oat, wild = assay: Test C postemergence; type: in vivo, Avena fatua
Method in brief: as §1

lambsquarters [1] = assay: Test C postemergence; type: in vivo, Chenopodium album
Method in brief: as §1

velvetleaf = assay: Test C postemergence; type: in vivo, Abutilon theophrasti
Method in brief: as §1

ryegrass, Italian = assay: Test C postemergence; type: in vivo, Lolium multiflorum
Method in brief: as §1

barnyardgrass = assay: Test C postemergence; type: in vivo, Echinochloa crus-galli
Method in brief: as §1

galium = assay: Test C postemergence; type: in vivo, Galium aparine
Method in brief: as §1

waterhemp = assay: Test C postemergence; type: in vivo, Amaranthus rudis
Method in brief: as §1

chickweed = assay: Test C postemergence; type: in vivo, Stellaria media
Method in brief: as §1

pigweed = assay: Test C postemergence; type: in vivo, Amaranthus retroflexus
Method in brief: as §1

lambsquarters [2] = assay: Test C preemergence; type: in vivo, Chenopodium album; settings: for Lambsquarters plant response rating: scale 0 to 100 (0 no effect, 100 complete control)
Method in brief: as §1

[3] = Postemergence, 31 g ai/ha, visually evaluated after 13 to 15 days
[4] = postemergence, 62 g ai/ha, scale 0 to 100
[5] = postemergence, 250 g ai/ha, scale 0 to 100 (0 no effect, 100 complete control)
[6] = postemergence, 125 g ai/ha, scale 0 to 100, 0 no effect, 100 complete control

CCNC(=O)c1cc(CC)n(Cc2ccnc(OC(F)F)c2)n1 [Compound 130]
75: Kochia plant response rating (kochia; [4]) | Morningglory plant response rating (morningglory; [4]) | Plant response rating, Lambsquarters (lambsquarters [1]; [5]) | Plant response rating, Galium (galium; [5]) | Plant response rating, Chickweed (chickweed; [5]) | Plant response rating, Chickweed (chickweed; [6])
100: Lambsquarters plant response rating (lambsquarters [2]; preemergence, 62 g ai/ha, 13 to 15 days) | Plant response rating, Lambsquarters (lambsquarters [2]; preemergence, 125 g ai/ha, 13 to 15 days, scale 0 to 100, 0 = no effect, 100 = complete control)
40: Plant response rating (scale of 0 to 100 where 0 is no effect and 100 is complete control), Foxtail, Giant (foxtail, giant; [3])
35: Plant response rating (scale of 0 to 100 where 0 is no effect and 100 is complete control), Morningglory (morningglory; [3]) | Ragweed plant response rating (ragweed; [4])
5: Nutsedge, Yellow plant response rating (nutsedge, yellow; [4]) | Plant response rating, Nutsedge, Yellow (nutsedge, yellow; [6]) | Plant response rating (scale of 0 to 100 where 0 is no effect and 100 is complete control), Oat, Wild (oat, wild; [3]) | Plant response rating (scale of 0 to 100 where 0 is no effect and 100 is complete control), Velvetleaf (velvetleaf; [3]) | Plant response rating (scale of 0 to 100 where 0 is no effect and 100 is complete control), Ryegrass, Italian (ryegrass, Italian; [3]) | Ryegrass, Italian plant response rating (ryegrass, Italian; [4]) | Plant response rating (scale of 0 to 100 where 0 is no effect and 100 is complete control), Barnyardgrass (barnyardgrass; [3]) | Barnyardgrass plant response rating (barnyardgrass; [4]) | Plant response rating, Barnyardgrass (barnyardgrass; [6])
85: Plant response rating, Morningglory (morningglory; [6]) | Plant response rating, Ragweed (ragweed; [5]) | Plant response rating, Pigweed (pigweed; [5]) | Lambsquarters plant response rating (lambsquarters [2]; preemergence, 31 g ai/ha, visual rating, 13 to 15 days)
60: Plant response rating, Velvetleaf (velvetleaf; [5]) | Plant response rating (scale of 0 to 100 where 0 is no effect and 100 is complete control), Galium (galium; [3])
15: Foxtail, Giant plant response rating (foxtail, giant; [4]) | Plant response rating, Oat, Wild (oat, wild; [5]) | Plant response rating, Oat, Wild (oat, wild; [6]) | Plant response rating, Ryegrass, Italian (ryegrass, Italian; [5])
45: Plant response rating, Ragweed (ragweed; [6])
25: Plant response rating (scale of 0 to 100 where 0 is no effect and 100 is complete control), Lambsquarters (lambsquarters [1]; [3])
55: Plant response rating, Foxtail, Giant (foxtail, giant; [5]) | Waterhemp plant response rating (waterhemp; [4])
65: Plant response rating (scale of 0 to 100 where 0 is no effect and 100 is complete control), Kochia (kochia; [3]) | Plant response rating, Soybean (soybean; [6]) | Plant response rating, Lambsquarters (lambsquarters [1]; [6]) | Galium plant response rating (galium; [4]) | Plant response rating, Galium (galium; [6]) | Plant response rating (scale of 0 to 100 where 0 is no effect and 100 is complete control), Chickweed (chickweed; [3]) | Pigweed plant response rating (pigweed; [4])
10: Plant response rating, Nutsedge, Yellow (nutsedge, yellow; [5]) | Oat, Wild plant response rating (oat, wild; [4]) | Velvetleaf plant response rating (velvetleaf; [4]) | Plant response rating, Ryegrass, Italian (ryegrass, Italian; [6]) | Plant response rating, Barnyardgrass (barnyardgrass; [5])
30: Plant response rating (scale of 0 to 100 where 0 is no effect and 100 is complete control), Ragweed (ragweed; [3]) | Lambsquarters plant response rating (lambsquarters [1]; [4]) | Plant response rating (scale of 0 to 100 where 0 is no effect and 100 is complete control), Waterhemp (waterhemp; [3]) | Plant response rating (scale of 0 to 100 where 0 is no effect and 100 is complete control), Pigweed (pigweed; [3])
0: Plant response rating (scale of 0 to 100 where 0 is no effect and 100 is complete control), Nutsedge, Yellow (nutsedge, yellow; [3])
70: Plant response rating (scale of 0 to 100 where 0 is no effect and 100 is complete control), Soybean (soybean; [3]) | Plant response rating, Waterhemp (waterhemp; [6]) | Chickweed plant response rating (chickweed; [4])
90: Plant response rating, Kochia (kochia; [5]) | Plant response rating, Kochia (kochia; [6])
20: Plant response rating, Foxtail, Giant (foxtail, giant; [6])
80: Soybean plant response rating (soybean; [4]) | Plant response rating, Waterhemp (waterhemp; [5])
50: Plant response rating, Velvetleaf (velvetleaf; [6]) | Plant response rating, Pigweed (pigweed; [6])
98: Plant response rating, Morningglory (morningglory; [5]) | Plant response rating, Soybean (soybean; [5]) | Plant response rating (scale of 0 to 100), Lambsquarters (lambsquarters [2]; Preemergence, 250 g ai/ha)
